Experimental data taken from patent US11040981B2, “Pyrrolotriazine compounds and methods of inhibiting TAM kinases” (Syros Pharmaceuticals, Inc., priority 2017, dated 2021).

Experiments:
TYRO3 = biological target: T1, TYRO3 (Homo sapiens, UniProt Q06418); assay: TR-FRET kinase activity assay, TYRO3; type: biochemical; details: ATP at Km, 60 minutes
T1 sequence (Q06418 41-890): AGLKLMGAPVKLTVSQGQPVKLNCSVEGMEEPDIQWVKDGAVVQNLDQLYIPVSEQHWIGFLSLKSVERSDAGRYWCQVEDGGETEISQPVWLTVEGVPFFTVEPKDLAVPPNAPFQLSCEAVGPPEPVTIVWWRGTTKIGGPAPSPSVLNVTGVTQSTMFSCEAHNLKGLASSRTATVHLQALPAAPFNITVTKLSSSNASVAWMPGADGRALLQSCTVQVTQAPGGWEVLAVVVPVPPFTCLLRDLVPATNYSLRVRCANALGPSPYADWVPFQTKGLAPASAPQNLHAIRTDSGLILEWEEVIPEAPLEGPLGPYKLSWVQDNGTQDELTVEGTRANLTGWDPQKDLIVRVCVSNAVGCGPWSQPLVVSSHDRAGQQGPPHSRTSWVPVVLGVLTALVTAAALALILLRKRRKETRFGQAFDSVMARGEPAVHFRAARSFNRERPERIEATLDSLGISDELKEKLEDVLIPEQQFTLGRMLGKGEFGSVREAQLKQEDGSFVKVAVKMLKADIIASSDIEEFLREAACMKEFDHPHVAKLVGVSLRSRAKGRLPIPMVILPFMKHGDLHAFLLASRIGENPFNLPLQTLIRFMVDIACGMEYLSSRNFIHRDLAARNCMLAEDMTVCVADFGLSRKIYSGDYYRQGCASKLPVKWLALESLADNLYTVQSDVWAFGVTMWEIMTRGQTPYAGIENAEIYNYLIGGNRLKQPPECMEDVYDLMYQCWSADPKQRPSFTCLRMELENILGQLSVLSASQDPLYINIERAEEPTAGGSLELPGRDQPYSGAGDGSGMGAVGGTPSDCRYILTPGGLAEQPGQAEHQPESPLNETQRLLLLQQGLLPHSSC
Summary of the method: (§1)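 Enzyme + labelled peptide + cpd premixed; ATP at per-enzyme Km starts rxn. 60 min RT, HEPES pH 7.5/MgCl2/EGTA/Brij 35/DTT buffer. Stop 12.5 mM EDTA, Eu phospho-Ab 30 min dark, TR-FRET read → IC50.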

AXL = biological target: T2, AXL (Homo sapiens, UniProt P30530); assay: TR-FRET kinase activity assay, AXL; type: biochemical; details: ATP at Km, 60 minutes
T2 sequence (P30530 26-894): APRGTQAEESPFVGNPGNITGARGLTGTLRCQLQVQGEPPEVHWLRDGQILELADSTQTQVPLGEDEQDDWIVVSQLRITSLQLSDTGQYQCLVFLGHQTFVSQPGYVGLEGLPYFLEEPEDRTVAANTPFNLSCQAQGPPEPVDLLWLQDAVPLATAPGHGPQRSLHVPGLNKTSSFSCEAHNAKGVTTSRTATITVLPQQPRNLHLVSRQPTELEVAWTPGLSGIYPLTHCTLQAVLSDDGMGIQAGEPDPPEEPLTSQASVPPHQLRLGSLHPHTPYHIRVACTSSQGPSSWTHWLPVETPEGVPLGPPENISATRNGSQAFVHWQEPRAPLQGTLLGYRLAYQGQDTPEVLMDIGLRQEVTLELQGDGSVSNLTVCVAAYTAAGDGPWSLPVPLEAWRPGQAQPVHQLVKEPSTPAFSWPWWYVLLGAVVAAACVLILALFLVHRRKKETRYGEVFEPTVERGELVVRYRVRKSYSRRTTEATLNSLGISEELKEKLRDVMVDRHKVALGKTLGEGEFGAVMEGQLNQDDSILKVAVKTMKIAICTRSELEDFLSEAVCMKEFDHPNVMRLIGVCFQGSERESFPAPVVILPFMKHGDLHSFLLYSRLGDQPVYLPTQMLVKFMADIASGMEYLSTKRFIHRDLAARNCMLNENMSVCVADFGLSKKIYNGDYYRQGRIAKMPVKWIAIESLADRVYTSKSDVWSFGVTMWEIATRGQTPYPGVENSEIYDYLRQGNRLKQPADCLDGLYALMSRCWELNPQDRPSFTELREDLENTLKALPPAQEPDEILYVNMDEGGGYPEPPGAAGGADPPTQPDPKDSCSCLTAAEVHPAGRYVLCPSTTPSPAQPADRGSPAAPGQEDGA
Summary of the method: as §1

Which results are given for `COC[C@H](C)Nc1ncc2c(-c3cnn(C(C)(C)C(=O)N4CCOCC4)c3)cc([C@@H]3CCc4cn[nH]c4C3)n2n1` [Compound 594]?
IC50 (TYRO3): ≤ 100 nM; IC50 (AXL): ≤ 100 nM
